Assay [1] addresses T1, wt human JAK2, catalytic site (Homo sapiens, UniProt O60674).
T1 construct: wt human JAK2, catalytic site; purchased SignalChem
The assay can be described thus: HTRF KinEASE assay, JAK2. The class given is biochemical. The following applies: assay format not given (Z'-LYTE or HTRF KinEASE); read-out: IC50, Activity Toward JAK2. Put shortly:
(§1)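 Kinase reaction run at room temperature for at least 30 min: 2 nM TYK2 with 1 μM ATP, or 1 nM JAK2 with 100 μM ATP, each with 1 μM biotin-TK substrate. Phosphorylation detected by HTRF (60 min antibody/XL665) and evaluated from emission ratios.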

For assay [2], the target named is T2, wt human TYK2, catalytic site (Homo sapiens, UniProt P29597).
T2 construct: wt human TYK2, catalytic site; purchased SignalChem
T2 sequence (P29597 897-1176 limits assumed): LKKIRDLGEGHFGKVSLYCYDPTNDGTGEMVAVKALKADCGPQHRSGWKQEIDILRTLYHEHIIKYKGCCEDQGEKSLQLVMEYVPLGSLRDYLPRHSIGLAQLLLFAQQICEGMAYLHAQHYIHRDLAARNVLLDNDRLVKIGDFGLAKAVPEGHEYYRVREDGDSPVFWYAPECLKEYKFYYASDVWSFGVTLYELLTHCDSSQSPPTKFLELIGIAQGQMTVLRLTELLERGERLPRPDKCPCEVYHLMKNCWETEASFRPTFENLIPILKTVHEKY
The assay can be described thus: HTRF KinEASE assay, TYK2. Format: biochemical. Particulars: 1 μM ATP; read-out: IC50, Activity Toward TYK2. The procedure, abridged:
as §1
(In general: In TR-FRET formats the signal depends on donor and acceptor labels being close together.)

Assay [3] deals with T3, wt human NUAK1, full length (Homo sapiens, UniProt O60285).
T3 construct: 8 nM wt human NUAK1, full length (ThermoFisher/USA); purchased ThermoFisher
T3 sequence (O60285 1-661): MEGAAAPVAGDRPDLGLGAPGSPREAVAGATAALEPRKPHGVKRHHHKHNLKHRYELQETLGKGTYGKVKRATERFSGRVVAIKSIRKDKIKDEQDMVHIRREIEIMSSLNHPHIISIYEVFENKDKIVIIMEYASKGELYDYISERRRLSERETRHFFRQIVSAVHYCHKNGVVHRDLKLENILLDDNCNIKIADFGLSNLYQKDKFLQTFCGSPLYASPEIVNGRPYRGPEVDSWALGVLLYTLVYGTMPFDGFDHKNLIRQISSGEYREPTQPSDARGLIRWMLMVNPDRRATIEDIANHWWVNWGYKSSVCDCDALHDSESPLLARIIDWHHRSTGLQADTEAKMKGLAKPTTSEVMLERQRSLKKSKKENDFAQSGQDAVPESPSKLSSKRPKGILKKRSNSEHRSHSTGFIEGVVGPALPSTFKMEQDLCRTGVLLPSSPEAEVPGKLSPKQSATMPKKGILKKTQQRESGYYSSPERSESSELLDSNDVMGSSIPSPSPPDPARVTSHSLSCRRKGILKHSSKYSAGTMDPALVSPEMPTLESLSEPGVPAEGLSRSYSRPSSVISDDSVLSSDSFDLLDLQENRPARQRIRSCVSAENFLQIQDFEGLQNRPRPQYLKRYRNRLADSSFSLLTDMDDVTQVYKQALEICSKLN
The experiment in a line: TR-FRET LanthaScreen Eu Kinase Binding Assay, NUAK1. Particulars: read-out: IC50, Activity Toward NUAK1. Put shortly:
(§2)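 Kinase Buffer A holding, as final levels, 8 nM full-length NUAK1, 2 nM Eu-anti-His antibody and 5 nM Tracer 236, or 5 nM LRRK2 catalytic site (wt or G2019S), 2 nM Eu-anti-GST and 10 nM Tracer 236. Compound added, then 1 h at room temperature before TR-FRET ratio readout.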

In assay [4] the target is T4, G2019S human LRRK2, catalytic site (Homo sapiens, UniProt Q5S007, G2019S).
T4 construct: G2019S human LRRK2, catalytic site; purchased ThermoFisher
T4 sequence (Q5S007 970-2527 G2019S limits assumed): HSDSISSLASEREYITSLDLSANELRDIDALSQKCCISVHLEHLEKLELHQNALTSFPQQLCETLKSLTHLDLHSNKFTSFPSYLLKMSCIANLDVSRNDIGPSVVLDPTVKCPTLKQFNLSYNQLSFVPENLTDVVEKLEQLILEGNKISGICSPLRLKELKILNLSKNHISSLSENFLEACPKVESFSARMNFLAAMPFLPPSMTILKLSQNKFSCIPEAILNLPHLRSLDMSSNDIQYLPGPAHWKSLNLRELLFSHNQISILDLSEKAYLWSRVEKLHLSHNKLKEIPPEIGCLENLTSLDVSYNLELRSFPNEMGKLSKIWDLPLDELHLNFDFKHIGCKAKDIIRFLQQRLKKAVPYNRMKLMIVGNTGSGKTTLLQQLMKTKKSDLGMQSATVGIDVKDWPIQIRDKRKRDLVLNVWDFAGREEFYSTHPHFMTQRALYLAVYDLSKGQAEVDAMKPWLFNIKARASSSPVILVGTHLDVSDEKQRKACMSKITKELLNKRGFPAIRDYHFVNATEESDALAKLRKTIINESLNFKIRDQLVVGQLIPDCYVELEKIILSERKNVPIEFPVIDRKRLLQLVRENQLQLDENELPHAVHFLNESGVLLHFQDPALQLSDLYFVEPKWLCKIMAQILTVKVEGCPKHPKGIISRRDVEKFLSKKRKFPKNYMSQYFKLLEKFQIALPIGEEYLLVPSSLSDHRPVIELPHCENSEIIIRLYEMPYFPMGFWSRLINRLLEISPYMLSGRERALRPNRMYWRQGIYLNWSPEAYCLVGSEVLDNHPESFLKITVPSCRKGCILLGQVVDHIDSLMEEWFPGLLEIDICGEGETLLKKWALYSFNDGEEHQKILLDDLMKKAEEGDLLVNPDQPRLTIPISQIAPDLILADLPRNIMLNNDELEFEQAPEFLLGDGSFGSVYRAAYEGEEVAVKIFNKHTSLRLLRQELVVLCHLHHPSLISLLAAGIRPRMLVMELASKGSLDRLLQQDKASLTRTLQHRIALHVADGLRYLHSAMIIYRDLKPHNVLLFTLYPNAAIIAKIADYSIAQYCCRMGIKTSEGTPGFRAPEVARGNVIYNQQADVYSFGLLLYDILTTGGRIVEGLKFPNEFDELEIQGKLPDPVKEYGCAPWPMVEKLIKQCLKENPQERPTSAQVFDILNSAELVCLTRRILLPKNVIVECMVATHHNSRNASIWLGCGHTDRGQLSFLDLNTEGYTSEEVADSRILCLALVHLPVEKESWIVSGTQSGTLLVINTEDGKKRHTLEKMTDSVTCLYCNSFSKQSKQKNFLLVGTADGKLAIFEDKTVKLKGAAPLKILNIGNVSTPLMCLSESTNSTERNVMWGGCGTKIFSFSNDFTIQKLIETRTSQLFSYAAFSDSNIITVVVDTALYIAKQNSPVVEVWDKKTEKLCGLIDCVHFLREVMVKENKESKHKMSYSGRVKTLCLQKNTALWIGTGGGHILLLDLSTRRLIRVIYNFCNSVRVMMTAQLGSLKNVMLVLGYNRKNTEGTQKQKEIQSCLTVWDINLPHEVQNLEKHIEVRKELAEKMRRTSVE
The assay can be described thus: TR-FRET LanthaScreen Eu Kinase Binding Assay, LRRK2 G2019S. The following applies: LRRK2(G2019); one range stated for wt and G2019; read-out: IC50, Activity Toward LRRK2(G2019). The procedure, abridged:
as §2

The target of assay [5] is T5, wt human LRRK2, catalytic site (Homo sapiens, UniProt Q5S007).
T5 construct: 5 nM wt human LRRK2, catalytic site; purchased ThermoFisher
T5 sequence (Q5S007 970-2527 limits assumed): as the sequence (Q5S007 970-2527 G2019S limits assumed) above, with S1050G counted along it
The assay can be described thus: TR-FRET LanthaScreen Eu Kinase Binding Assay, LRRK2 wt. Particulars: one range stated for wt and G2019, read-out: IC50, Activity Toward LRRK2(Wt). Put shortly: as §2

Assay [6] has as its target T6, wt human JAK1, catalytic site (Homo sapiens, UniProt P23458).
T6 construct: wt human JAK1, catalytic site; purchased ThermoFisher
The experiment in a line: HTRF KinEASE assay, JAK1. Format: biochemical. The following applies: 2.5 μM ATP; read-out: IC50, Activity Toward JAK1. Put shortly:
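Compounds in DMSO dilution were mixed with kinase, biotin-TK substrate and ATP and reacted for ≥30 min at room temperature. Detection reagents (antibody, streptavidin-XL665) were read 60 min later as HTRF, with emission ratios analysed per KinEASE protocol.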

Consider 15 compounds from patent US20230373985A1 (Origenis Gmbh, priority 2020, published 2023).

T6 sequence (P23458 875-1153 limits assumed): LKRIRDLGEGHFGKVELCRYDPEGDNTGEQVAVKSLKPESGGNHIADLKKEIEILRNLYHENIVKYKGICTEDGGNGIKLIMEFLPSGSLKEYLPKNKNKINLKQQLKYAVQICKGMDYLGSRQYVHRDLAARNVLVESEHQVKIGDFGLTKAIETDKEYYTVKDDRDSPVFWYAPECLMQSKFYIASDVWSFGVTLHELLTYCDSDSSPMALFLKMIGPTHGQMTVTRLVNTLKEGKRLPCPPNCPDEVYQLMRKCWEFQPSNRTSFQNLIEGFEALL
T1 sequence (O60674 849-1124 limits assumed): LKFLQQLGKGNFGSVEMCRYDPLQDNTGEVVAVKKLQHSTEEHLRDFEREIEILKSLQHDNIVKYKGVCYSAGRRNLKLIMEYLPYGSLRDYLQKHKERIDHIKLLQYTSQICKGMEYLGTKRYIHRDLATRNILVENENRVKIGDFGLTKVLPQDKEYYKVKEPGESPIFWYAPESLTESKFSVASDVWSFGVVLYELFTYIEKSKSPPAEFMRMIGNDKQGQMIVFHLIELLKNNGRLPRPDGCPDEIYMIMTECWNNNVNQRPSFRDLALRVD

Take `NC(=O)c1nn(-c2c(F)cccc2F)cc1Nc1ccc(C(=O)NC2CCOCC2)cc1` [compound 13, 1-(2,6-difluorophenyl)-4-((4-((tetrahydro-2H-pyran-4-yl)carbamoyl)phenyl)amino)-1H-pyrazole-3-carboxamide]: the IC50 – broadly, the concentration that gives 50% inhibition – in assay [1] was in the range of 100 to 1000 nM; in assay [2], 10 to 100 nM; in assay [3], 10 to 100 nM; in assay [4] it was 100 to 1000 nM; in assay [5], 100 to 1000 nM; in assay [6] it was 100 to 1000 nM.
For the compound `CN1CCN(C(=O)c2ccc(Nc3cn(-c4c(F)cccc4Cl)nc3C(N)=O)cc2)CC1` [compound 36, 1-(2-chloro-6-fluorophenyl)-4-((4-(4-methylpiperazine-1-carbonyl)phenyl)amino)-1H-pyrazole-3-carboxamide], the IC50 in assay [1] was 100 to 1000 nM; in assay [2], less than 10 nM; in assay [3], 100 to 1000 nM; in assay [4], 10 to 100 nM; in assay [5], 10 to 100 nM; in assay [6] it was 10 to 100 nM.
As to `N#Cc1cccc(F)c1-n1cc(Nc2ccc(C(=O)N3CCS(=O)(=O)CC3)cc2)c(C(N)=O)n1` [compound 452, 1-(2-cyano-6-fluorophenyl)-4-((4-(1,1-dioxidothiomorpholine-4-carbonyl)phenyl)amino)-1H-pyrazole-3-carboxamide], the IC50 was 100 to 1000 nM in assay [1]; less than 10 nM in assay [2]; 100 to 1000 nM in assay [3]; 100 to 1000 nM in assay [4]; 100 to 1000 nM in assay [5]; less than 10 nM in assay [6].
With `NC(=O)c1nn(-c2c(F)cccc2Cl)cc1Nc1ccc(C(=O)N2CCOCC2)cc1` [compound 22, 1-(2-chloro-6-fluorophenyl)-4-((4-(morpholine-4-carbonyl)phenyl)amino)-1H-pyrazole-3-carboxamide], the IC50 in assay [1] was 100 to 1000 nM; in assay [2] it was less than 10 nM; in assay [3] it was 10 to 100 nM; in assay [4], 100 to 1000 nM; in assay [5], 100 to 1000 nM; in assay [6] it was 10 to 100 nM.
Regarding `CCn1cnnc1-c1ccc(Nc2cn(-c3c(F)cccc3Cl)nc2C(N)=O)cc1` [compound 207, 1-(2-chloro-6-fluorophenyl)-4-((4-(4-ethyl-4H-1,2,4-triazol-3-yl)phenyl)amino)-1H-pyrazole-3-carboxamide], the half-maximal inhibitory concentration (IC50) in assay [1] was 100 to 1000 nM; in assay [2] it was less than 10 nM; in assay [3], 100 to 1000 nM; in assay [4], 100 to 1000 nM; in assay [5] it was 100 to 1000 nM; in assay [6], 10 to 100 nM.
Take `CCn1cnnc1-c1ccc(Nc2cn(-c3c(Cl)cccc3Cl)nc2C(N)=O)cc1` [compound 87, 1-(2,6-dichlorophenyl)-4-((4-(4-ethyl-4H-1,2,4-triazol-3-yl)phenyl)amino)-1H-pyrazole-3-carboxamide]: the IC50 in assay [1] was 100 to 1000 nM; in assay [2], less than 10 nM; in assay [3], 100 to 1000 nM; in assay [4], 100 to 1000 nM; in assay [5], 100 to 1000 nM; in assay [6], 10 to 100 nM.
Regarding `NC(=O)c1nn(-c2c(F)cccc2Cl)cc1Nc1ccc(-c2nnc3n2CCOC3)cc1` [compound 62, 1-(2-chloro-6-fluorophenyl)-4-((4-(6,8-dihydro-5H-[1,2,4]triazolo[3,4-c][1,4]oxazin-3-yl)phenyl)amino)-1H-pyrazole-3-carboxamide], the IC50 in assay [1] was 100 to 1000 nM; in assay [2], less than 10 nM; in assay [3] it was 100 to 1000 nM; in assay [4], 10 to 100 nM; in assay [5], 10 to 100 nM; in assay [6], 100 to 1000 nM.
Consider `Cn1cnnc1-c1ccc(Nc2cn(-c3c(Cl)cccc3Cl)nc2C(N)=O)cc1` [compound 88, 1-(2,6-dichlorophenyl)-4-((4-(4-methyl-4H-1,2,4-triazol-3-yl)phenyl)amino)-1H-pyrazole-3-carboxamide], for which the IC50 is 100 to 1000 nM in assay [1]; less than 10 nM in assay [2]; 100 to 1000 nM in assay [3]; 100 to 1000 nM in assay [4]; 100 to 1000 nM in assay [5]; 10 to 100 nM in assay [6].
`NC(=O)c1nn(-c2c(F)cccc2F)cc1Nc1ccc(C(=O)N2CCOCC2)cc1` [compound 12, 1-(2,6-difluorophenyl)-4-((4-(morpholine-4-carbonyl)phenyl)amino)-1H-pyrazole-3-carboxamide]: the IC50 in assay [1] was in the range of 100 to 1000 nM; in assay [2], 10 to 100 nM; in assay [3], 100 to 1000 nM; in assay [4] it was 10 to 100 nM; in assay [5], 10 to 100 nM; in assay [6], 100 to 1000 nM.
Consider `NC(=O)c1nn(-c2c(F)cccc2Cl)cc1Nc1ccc(C(=O)N2CCCC2)cc1` [compound 227, 1-(2-chloro-6-fluorophenyl)-4-((4-(pyrrolidine-1-carbonyl)phenyl)amino)-1H-pyrazole-3-carboxamide], for which the IC50 in assay [1] is 100 to 1000 nM; in assay [2], less than 10 nM; in assay [3], 10 to 100 nM; in assay [4], 100 to 1000 nM; in assay [5] it was 100 to 1000 nM; in assay [6] it was 10 to 100 nM.
On to `N#Cc1cccc(F)c1-n1cc(Nc2ccc(C(=O)N3CCOCC3)cc2)c(C(N)=O)n1` [compound 454, 1-(2-cyano-6-fluorophenyl)-4-((4-(morpholine-4-carbonyl)phenyl)amino)-1H-pyrazole-3-carboxamide], for which the IC50 in assay [1] is 100 to 1000 nM; in assay [2], less than 10 nM; in assay [3], 100 to 1000 nM; in assay [4], 100 to 1000 nM; in assay [5] it was 100 to 1000 nM; in assay [6], 10 to 100 nM.
With `NC(=O)c1nn(-c2c(F)cccc2Cl)cc1Nc1ccc(-c2nnc3n2CCCC3)cc1` [compound 58, 1-(2-chloro-6-fluorophenyl)-4-((4-(5,6,7,8-tetrahydro-[1,2,4]triazolo[4,3-a]pyridin-3-yl)phenyl)amino)-1H-pyrazole-3-carboxamide], the IC50 is 100 to 1000 nM in assay [1]; less than 10 nM in assay [2]; 100 to 1000 nM in assay [3]; 10 to 100 nM in assay [4]; 10 to 100 nM in assay [5]; 10 to 100 nM in assay [6].
Regarding `Cn1nnnc1-c1ccc(Nc2nn(-c3c(Cl)cccc3Cl)nc2C(N)=O)cc1` [compound 104], the IC50 is 100 to 1000 nM in assay [1], less than 10 nM in assay [2], 100 to 1000 nM in assay [3] and 10 to 100 nM in assay [6].
For the compound `NC(=O)c1nn(-c2c(Cl)cccc2Cl)nc1Nc1ccc(C(=O)N2CC[C@@H](F)C2)cc1` [compound 106, 2-(2,6-Dichloro-phenyl)-5-[4-((R)-3-fluoro-pyrrolidine-1-carbonyl)-phenylamino]-2H-[1,2,3]triazole-4-carboxylic acid amide], the IC50 was 100 to 1000 nM in assay [1], less than 10 nM in assay [2], 100 to 1000 nM in assay [3] and 10 to 100 nM in assay [6].
Turning to `CN(C)[C@H]1CCN(C(=O)c2ccc(Nc3nn(-c4c(Cl)cccc4Cl)nc3C(N)=O)cc2)C1` [compound 105, 2-(2,6-Dichloro-phenyl)-5-[4-((S)-3-dimethylamino-pyrrolidine-1-carbonyl)-phenylamino]-2H-[1,2,3]triazole-4-carboxylic acid amide], the IC50 was 100 to 1000 nM in assay [1], less than 10 nM in assay [2], 100 to 1000 nM in assay [3] and less than 10 nM in assay [6].
